Patent publication US20230301981A1, “TLR7/8 ANTAGONISTS AND USES THEREOF” (Merck Patent GmbH, priority 2020, published 2023)

Target: T1, TLR⅞ (Mus musculus, UniProt P58681)
T1 sequence (P58681 27-1050): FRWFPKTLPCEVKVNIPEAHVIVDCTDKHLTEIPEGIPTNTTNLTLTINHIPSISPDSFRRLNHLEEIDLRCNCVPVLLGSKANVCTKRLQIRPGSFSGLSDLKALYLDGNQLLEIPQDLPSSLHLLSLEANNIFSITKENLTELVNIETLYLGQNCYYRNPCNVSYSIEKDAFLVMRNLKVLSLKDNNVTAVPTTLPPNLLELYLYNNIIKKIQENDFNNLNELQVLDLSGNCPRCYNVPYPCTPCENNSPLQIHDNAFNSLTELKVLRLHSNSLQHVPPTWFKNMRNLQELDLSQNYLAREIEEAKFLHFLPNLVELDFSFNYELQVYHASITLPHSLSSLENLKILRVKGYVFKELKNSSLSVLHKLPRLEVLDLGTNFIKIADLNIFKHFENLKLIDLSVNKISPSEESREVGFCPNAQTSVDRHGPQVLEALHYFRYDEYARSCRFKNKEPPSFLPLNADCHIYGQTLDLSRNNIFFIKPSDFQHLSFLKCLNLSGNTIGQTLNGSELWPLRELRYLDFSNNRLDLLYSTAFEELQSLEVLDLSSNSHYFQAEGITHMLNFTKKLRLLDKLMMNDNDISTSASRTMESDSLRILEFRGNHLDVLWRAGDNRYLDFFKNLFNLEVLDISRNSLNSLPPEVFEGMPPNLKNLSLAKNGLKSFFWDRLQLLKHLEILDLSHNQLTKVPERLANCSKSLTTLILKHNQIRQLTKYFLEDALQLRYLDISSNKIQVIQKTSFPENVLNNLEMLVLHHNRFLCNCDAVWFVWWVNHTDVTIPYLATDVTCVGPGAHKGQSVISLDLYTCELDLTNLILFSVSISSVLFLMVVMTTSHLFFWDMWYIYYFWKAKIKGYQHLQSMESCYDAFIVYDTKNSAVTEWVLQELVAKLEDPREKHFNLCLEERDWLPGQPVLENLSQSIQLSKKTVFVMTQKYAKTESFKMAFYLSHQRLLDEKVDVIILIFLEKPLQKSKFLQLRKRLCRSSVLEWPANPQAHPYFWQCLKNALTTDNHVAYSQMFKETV
Assay: Mouse spleenocytes cell assay with R848 stimulation (IL6/TNFa ELISA)
Assay type: cell-based
Settings: R848 1 µM
Experimental: Mouse spleen from healthy, female C57BL-6/N mice (n=2) were taken out in 50 mL tubes with B-Cell medium and the experiment started directly. The spleen was grinded through a cell strainer by using the punch of a syringe into a 50 mL Falcon tube. Cell strainer and punch were flushed with appropriate amount of washing buffer to avoid cellloss. Then the spleenocytes were centrifuged for 10 min at 552 xg (1600 rpm), 4° C. The erythrocytes within the cell pellet were lysed by resuspending pellet in 1 ml ACK-lysing buffer (4° C.) and incubate for 1 minute at RT. Lysis was stopped by filling up to 50 ml with washing buffer and centrifuged for 10 min at 552 xg (1600 rpm), 4° C. Cells were washed in B-cell Media (IMDM + 25 mM HEPES + 10%FCS + pen/strep + NEAA 10 nM + Sodium Pyrovat 100 nM, β-Mercaptoethanol 50 nM), counted and seeded in a density of 148500 cells per well in a 96 well MTP (135µl of 1,1×106c/ml). The cells were pre-treated with antimalarials (15 µL, in different concentrations according to dose-response curve ranging from 100 pM-50 µM)) for 30 min, at 37° C., 5% CO2, followed by TLR⅞ stimulation with R848 (15 µl, final concentration of 1 µM) or a TLR9 stimulation with CpG (15 µl, final concentration of 5 µM) and incubated at 37° C., 5% CO2 for 18 - 24 hours.
Supernatants were collected and transferred into a 96 well round bottom MTP and stored at -20° C. until ELISA formouse IL6 and mouse TNFa were performed. Plates were read directly after assay on an Envision Multiplate reader. Results were analyzed with GraphPadPrism V8.0. Plot the calculated amount of produced IL6 or TNFa in pg/ml on y-axis and the concentration of each MSC concentration at half logarhythmic scaling on the x-axis to achieve a dose-response curve. Determine IC50 values using Graph Pad Prism analysis software (Transform Y values using “X=Log(X) and log inhibitor vs. response; Variable slope (four parameters).

CCN(CCO)CCCC(C)Nc1ccnc2cc(Cl)ccc12 (stereo not drawn) [HYDROXY-CHLOROQUINE HCQ, hydroxychloroquine]
IC50 TLR⅞ (IL6 readout) mouse spleenocytes (n=2) (IL6 readout): no suppr
IC50 (IL6 readout, read-out: IC50 TLR⅞ (IL6 readout) mouse spleenocytes (n=2)): 27.1 µM
IC50 TLR⅞ (TNF readout) mouse spleenocytes (n=2) (TNF readout): no suppr
